Measurements as given in PMC10526854, “Shikonin and Juglone Inhibit Mycobacterium tuberculosis Low-Molecular-Weight Protein Tyrosine Phosphatase a (Mt-PTPa)” (BioTech, 2023).

Key:
[1] = target: T1, Mt-PTPa (Mycobacterium tuberculosis, UniProt P9WIA1); assay: Mt-PTPa phosphatase activity inhibition assay (hydrolysis of p-nitrophenyl phosphate, A405); format: biochemical; conditions: for IC50 / Ki / inhibition of Mt-PTPa compared with vanadate: Mt-PTPa 10 µM; for IC50 / inhibition of Mt-PTPa compared with vanadate: pNPP 100 µM; for IC50: 37 °C, 10 min, compound 0-1000 µM, mean ± SD (n = 3); for Ki: Dixon plot analysis, inhibitor 0-100 µM, read-out: KI (inhibitor constant); for Ki / inhibition pattern (mechanism): pNPP 0.25-2.50 mM; for inhibition of Mt-PTPa compared with vanadate: at 25 and 50 µM; for inhibition pattern (mechanism): double-reciprocal analysis
T1 construct: made in house; host or cells: E. coli BL21(DE3)pLysS

[2] = target: protein tyrosine phosphatase 1B (PTP1B); design: method as in PMID 34208908; conditions: in vitro; cited from earlier work
[3] = tested on: N-formyl-L-methionyl-L-leucyl-L-phenylalanine-induced protein tyrosine phosphorylation; design: method as in PMID 9175722; conditions: in neutrophils; cited from earlier work

T1 sequence (P9WIA1 whole entry): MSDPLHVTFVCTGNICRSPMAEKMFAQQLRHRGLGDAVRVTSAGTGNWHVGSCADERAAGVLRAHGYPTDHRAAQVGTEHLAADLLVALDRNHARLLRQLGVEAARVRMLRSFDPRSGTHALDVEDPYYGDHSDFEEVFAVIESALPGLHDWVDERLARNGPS

O=c1c(O)c(-c2cc(O)c(O)c(O)c2)oc2cc(O)cc(O)c12 [Myricetin, myricetin]
initial library screen outcome [1]: hits | IC50 [1]: 250 ± 25 µM

C[C@H]1[C@H](C)CC[C@]2(C(=O)O)CC[C@]3(C)C(=CC[C@@H]4[C@@]5(C)CC[C@H](O)C(C)(C)[C@@H]5CC[C@]43C)[C@H]12 [ursolic acid, reference compound]
IC50 [2]: 8.72 µM

O=C(/C=C/c1ccc(O)c(O)c1)O[C@H](Cc1ccc(O)c(O)c1)C(=O)O [Rosmarinic Acid, rosmarinic acid]
initial library screen outcome [1]: hits | IC50 [1]: 900 ± 132 µM

O=C1C=CC(=O)c2c(O)cccc21 [Juglone, 5-hydroxy-1,4-naphthalenedione]
Ki [1]: 12.5 µM | inhibition of Mt-PTPa compared with vanadate [1]: comparable levels of inhibition to vanadate | inhibition pattern (mechanism) [1]: non-competitive

Oc1cc(O)c2c(c1)O[C@H](c1cc(O)c(O)c(O)c1)[C@H](O)C2 [Epigallocatechin, epigallocatechin]
initial library screen outcome [1]: hits | IC50 [1]: 492 ± 101 µM

CC(C)=CC[C@@H](O)C1=CC(=O)c2c(O)ccc(O)c2C1=O [Shikonin, 5,8-dihydroxy-2-[(1R)-1-hydroxy-4-methyl-3-pentenyl]-1,4-naphthoquinone]
IC50 [2]: 15.5 µM | initial library screen outcome [1]: hits | Ki [1]: 8.5 µM | IC50 [1]: 33 ± 7 µM | inhibition of Mt-PTPa compared with vanadate [1]: comparable levels of inhibition to vanadate | inhibition pattern (mechanism) [1]: non-competitive

CC(=O)O[C@H](CC=C(C)C)C1=CC(=O)c2c(O)ccc(O)c2C1=O [acetylshikonin]
reduction of protein tyrosine phosphorylation [3]: 90%
